{"source": "paper PMC5218480", "about": "(PLoS ONE, 2017)", "system": "MV-4-11 cells", "assay": "Gene expression microarray analysis (Affymetrix PrimeView) and GSEA", "format": "cell-based, human", "set-up": "RFU PODN (11730768_x_at) / Fold change /veh PODN (11730768_x_at) / RFU LINC00158 (11744669_a_at) / Fold change /veh LINC00158 (11744669_a_at) / RFU DUSP10 (11751237_a_at) / Fold change /veh DUSP10 (11751237_a_at) / RFU ID3 (11757404_x_at) / Fold change /veh ID3 (11757404_x_at) / RFU PLEKHG5 (11737974_s_at) / Fold change /veh PLEKHG5 (11737974_s_at) / RFU LRRC4B (11730491_at) / Fold change /veh LRRC4B (11730491_at) / RFU GIMAP4 (11747438_a_at) / Fold change /veh GIMAP4 (11747438_a_at) / RFU KRT8 (11758183_x_at) / Fold change /veh KRT8 (11758183_x_at) / RFU CNN1 (11734310_a_at) / Fold change /veh CNN1 (11734310_a_at) / RFU VPS37D (11726825_at) / Fold change /veh VPS37D (11726825_at) / RFU C10orf10 (11716522_x_at) / Fold change /veh C10orf10 (11716522_x_at) / RFU KIR2DL2 /// KIR2DL4 /// KIR2DL5A /// KIR2DL5B /// KIR2DS1 /// KIR2DS2 /// KIR2DS3 /// KIR2DS4 /// KIR3DL3 /// KIR3DL3 /// KIR3DS1 (11738374_at) / Fold change /veh KIR2DL2 /// KIR2DL4 /// KIR2DL5A /// KIR2DL5B /// KIR2DS1 /// KIR2DS2 /// KIR2DS3 /// KIR2DS4 /// KIR3DL3 /// KIR3DL3 /// KIR3DS1 (11738374_at) / RFU C1QL1 (11718748_at) / Fold change /veh C1QL1 (11718748_at) / RFU TMPRSS4 (11747572_a_at) / Fold change /veh TMPRSS4 (11747572_a_at) / RFU HAMP (11756126_x_at) / Fold change /veh HAMP (11756126_x_at) / RFU RNFT2 (11725882_a_at) / Fold change /veh RNFT2 (11725882_a_at) / RFU NR4A2 (11747474_a_at) / Fold change /veh NR4A2 (11747474_a_at) / RFU ABCC12 (11746883_a_at) / Fold change /veh ABCC12 (11746883_a_at) / RFU TMEM136 (11760407_x_at) / Fold change /veh TMEM136 (11760407_x_at) / RFU CLDN22 /// WWC2 (11732394_at) / Fold change /veh CLDN22 /// WWC2 (11732394_at) / RFU HLA-DPB1 (11760878_x_at) / Fold change /veh HLA-DPB1 (11760878_x_at) / RFU SPINT1 (11716480_a_at) / Fold change /veh SPINT1 (11716480_a_at) / RFU GAP43 (11754022_s_at) / Fold change /veh GAP43 (11754022_s_at) / RFU A4GNT (11735810_at) / Fold change /veh A4GNT (11735810_at) / RFU PRB3 (11715151_x_at) / Fold change /veh PRB3 (11715151_x_at) / RFU TUBB4B (11761932_at) / Fold change /veh TUBB4B (11761932_at) / RFU CAPN14 (11732068_a_at) / Fold change /veh CAPN14 (11732068_a_at) / RFU TMCC2 (11721928_a_at) / Fold change /veh TMCC2 (11721928_a_at) / RFU IRGQ (11745062_a_at) / Fold change /veh IRGQ (11745062_a_at) / RFU FAM174B (11720279_a_at) / Fold change /veh FAM174B (11720279_a_at) / RFU TMPRSS4 (11748680_a_at) / Fold change /veh TMPRSS4 (11748680_a_at) / RFU FAM212B (11763350_a_at) / Fold change /veh FAM212B (11763350_a_at) / RFU PLEKHG5 (11743358_a_at) / Fold change /veh PLEKHG5 (11743358_a_at) / RFU ZSCAN30 (11745921_a_at) / Fold change /veh ZSCAN30 (11745921_a_at) / RFU CMKLR1 (11741424_a_at) / Fold change /veh CMKLR1 (11741424_a_at) / RFU LOC101060620 /// MAPK8IP1 (11723275_at) / Fold change /veh LOC101060620 /// MAPK8IP1 (11723275_at) / RFU SPTSSB (11747773_x_at) / Fold change /veh SPTSSB (11747773_x_at) / RFU PRSS12 (11739890_at) / Fold change /veh PRSS12 (11739890_at) / RFU BIN1 (11741810_x_at) / Fold change /veh BIN1 (11741810_x_at) / RFU WNT11 (11732464_a_at) / Fold change /veh WNT11 (11732464_a_at) / RFU C10orf10 (11716521_a_at) / Fold change /veh C10orf10 (11716521_a_at) / RFU C5orf56 (11738089_at) / Fold change /veh C5orf56 (11738089_at) / RFU CYB561 (11721691_x_at) / Fold change /veh CYB561 (11721691_x_at) / RFU ANKRD19P (11752326_a_at) / Fold change /veh ANKRD19P (11752326_a_at) / RFU OR2T12 /// OR2T33 /// OR2T8 (11738714_s_at) / Fold change /veh OR2T12 /// OR2T33 /// OR2T8 (11738714_s_at) / RFU VCAN (11748164_a_at) / Fold change /veh VCAN (11748164_a_at) / RFU JSRP1 (11732532_at) / Fold change /veh JSRP1 (11732532_at) / RFU KRTAP10-11 (11738290_x_at) / Fold change /veh KRTAP10-11 (11738290_x_at) / RFU MYO3A (11730013_a_at) / Fold change /veh MYO3A (11730013_a_at) / RFU EBF3 (11725865_a_at) / Fold change /veh EBF3 (11725865_a_at) / RFU CAMK2N1 (11719241_x_at) / Fold change /veh CAMK2N1 (11719241_x_at) / RFU C5orf56 (11738088_a_at) / Fold change /veh C5orf56 (11738088_a_at) / RFU OLFML3 (11715873_a_at) / Fold change /veh OLFML3 (11715873_a_at) / RFU LOC100653217 /// NTM (11731650_a_at) / Fold change /veh LOC100653217 /// NTM (11731650_a_at) / RFU MAPK11 (11762145_a_at) / Fold change /veh MAPK11 (11762145_a_at) / RFU FIZ1 (11724087_x_at) / Fold change /veh FIZ1 (11724087_x_at) / RFU OASL (11726364_x_at) / Fold change /veh OASL (11726364_x_at) / RFU SOX15 (11748057_x_at) / Fold change /veh SOX15 (11748057_x_at) / RFU CD79A (11719716_a_at) / Fold change /veh CD79A (11719716_a_at) / RFU HIST1H1D (11736915_at) / Fold change /veh HIST1H1D (11736915_at) / RFU CASKIN2 (11723855_a_at) / Fold change /veh CASKIN2 (11723855_a_at) / RFU LOC730098 (11760151_x_at) / Fold change /veh LOC730098 (11760151_x_at) / RFU OR4N2 (11742367_at) / Fold change /veh OR4N2 (11742367_at) / RFU PRRT2 (11749266_a_at) / Fold change /veh PRRT2 (11749266_a_at) / RFU SNX32 (11753110_a_at) / Fold change /veh SNX32 (11753110_a_at) / RFU CDHR5 (11726645_a_at) / Fold change /veh CDHR5 (11726645_a_at) / RFU RCAN1 (11760418_a_at) / Fold change /veh RCAN1 (11760418_a_at) / RFU FAM167A (11723789_a_at) / Fold change /veh FAM167A (11723789_a_at) / RFU FAM26E (11764081_at) / Fold change /veh FAM26E (11764081_at) / RFU ISYNA1 (11749810_s_at) / Fold change /veh ISYNA1 (11749810_s_at) / RFU ACY1 (11761880_at) / Fold change /veh ACY1 (11761880_at) / RFU 11764098_at / Fold change /veh 11764098_at / RFU SAMD14 (11745864_x_at) / Fold change /veh SAMD14 (11745864_x_at) / RFU NPB (11741838_a_at) / Fold change /veh NPB (11741838_a_at) / RFU TMPRSS6 (11731388_a_at) / Fold change /veh TMPRSS6 (11731388_a_at) / RFU KRTAP10-2 (11738614_at) / Fold change /veh KRTAP10-2 (11738614_at) / RFU ARHGAP8 /// PRR5-ARHGAP8 (11727945_x_at) / Fold change /veh ARHGAP8 /// PRR5-ARHGAP8 (11727945_x_at) / RFU KRTAP5-7 /// NADSYN1 (11734609_at) / Fold change /veh KRTAP5-7 /// NADSYN1 (11734609_at) / RFU RASL12 (11751679_a_at) / Fold change /veh RASL12 (11751679_a_at) / RFU CDKN2B (11736163_a_at) / Fold change /veh CDKN2B (11736163_a_at) / RFU PRF1 (11729649_at) / Fold change /veh PRF1 (11729649_at) / RFU, ZNF638 /// ZNF638-IT1 / Fold change vs veh, ZNF638 /// ZNF638-IT1 / RFU, PANK3 / Fold change vs veh, PANK3 / RFU, SH3YL1 / Fold change vs veh, SH3YL1 / RFU, ZEB2 / Fold change vs veh, ZEB2 / RFU, NRIP1 / Fold change vs veh, NRIP1 / RFU, PTTG1IP / Fold change vs veh, PTTG1IP / RFU, CAPN2 / Fold change vs veh, CAPN2 / RFU, MED14 / Fold change vs veh, MED14 / RFU, SNORA58 / Fold change vs veh, SNORA58 / RFU, C1orf63 / Fold change vs veh, C1orf63 / RFU, LRRFIP1 / Fold change vs veh, LRRFIP1 / RFU, NDUFAF7 / Fold change vs veh, NDUFAF7 / RFU, SLC12A2 / Fold change vs veh, SLC12A2 / RFU, IBTK / Fold change vs veh, IBTK / RFU, ESF1 / Fold change vs veh, ESF1 / Fold change vs veh, TMEM50B / RFU, TAOK1 / Fold change vs veh, TAOK1 / RFU, ACBD3 / Fold change vs veh, ACBD3 / RFU, TMA16 / Fold change vs veh, TMA16 / RFU, RWDD3 / Fold change vs veh, RWDD3 / RFU, BCAT1 / Fold change vs veh, BCAT1 / RFU, EDEM3 / Fold change vs veh, EDEM3 / RFU, TMEM33 / Fold change vs veh, TMEM33 / RFU, WDR75 / Fold change vs veh, WDR75 / RFU, AHCTF1 / Fold change vs veh, AHCTF1 / RFU, TFRC / Fold change vs veh, TFRC / RFU, ZDHHC17 / Fold change vs veh, ZDHHC17 / RFU, NOM1 / Fold change vs veh, NOM1 / RFU, ARL8B / Fold change vs veh, ARL8B / RFU, ZBTB11 / Fold change vs veh, ZBTB11 / RFU, TAMM41 / Fold change vs veh, TAMM41 / RFU, KIAA1704 /// LOC100996395 / Fold change vs veh, KIAA1704 /// LOC100996395 / RFU, ING1 / Fold change vs veh, ING1 / RFU, TRMT61B / Fold change vs veh, TRMT61B / RFU, FUBP3 / Fold change vs veh, FUBP3 / RFU, TP53 / Fold change vs veh, TP53 / RFU, TNKS2 / Fold change vs veh, TNKS2 / RFU, ZFP14 / Fold change vs veh, ZFP14 / RFU, ACTR2 / Fold change vs veh, ACTR2 / RFU, PPP3R1 / Fold change vs veh, PPP3R1 / RFU, PIK3R1 / Fold change vs veh, PIK3R1 / RFU, HNRNPA1 / Fold change vs veh, HNRNPA1 / RFU, RNF170 / Fold change vs veh, RNF170 / RFU, ZNF28 / Fold change vs veh, ZNF28 / RFU, RNGTT / Fold change vs veh, RNGTT / RFU, OGT / Fold change vs veh, OGT / RFU, BRD1 / Fold change vs veh, BRD1 / RFU, MARS / Fold change vs veh, MARS / RFU, ZNF655 / Fold change vs veh, ZNF655 / RFU, FAHD1 / Fold change vs veh, FAHD1 / RFU, BDP1 / Fold change vs veh, BDP1 / RFU, LRRCC1 / Fold change vs veh, LRRCC1 / RFU, ARID1A / Fold change vs veh, ARID1A / RFU, ZNF146 / Fold change vs veh, ZNF146 / RFU, ZNF330 / Fold change vs veh, ZNF330 / RFU, GPN3 / Fold change vs veh, GPN3 / RFU, C9orf123 / Fold change vs veh, C9orf123 / RFU, N4BP2L2 / Fold change vs veh, N4BP2L2 / RFU, ARFIP1 / Fold change vs veh, ARFIP1 / RFU, FAM179B / Fold change vs veh, FAM179B / RFU, BCL10 / Fold change vs veh, BCL10 / RFU, UHRF1BP1L / Fold change vs veh, UHRF1BP1L / RFU, BET1 / Fold change vs veh, BET1 / RFU, CNOT2 / Fold change vs veh, CNOT2 / RFU, ZNF268 / Fold change vs veh, ZNF268 / Fold change vs veh, ZNF507 / RFU, DGCR2 / Fold change vs veh, DGCR2 / RFU, WDSUB1 / Fold change vs veh, WDSUB1 / Fold change vs veh, HSP90B1 /// MIR3652 / RFU, ADSS / Fold change vs veh, ADSS / RFU, GK / Fold change vs veh, GK / RFU, ZNF148 / Fold change vs veh, ZNF148 / RFU, TAF9 / Fold change vs veh, TAF9 / RFU, SLC1A5 / Fold change vs veh, SLC1A5 / RFU, SLMO2 / Fold change vs veh, SLMO2 / RFU, ABCC4 / Fold change vs veh, ABCC4 / RFU, LOC101060439 /// RAP1B / Fold change vs veh, LOC101060439 /// RAP1B / RFU, RFX7 / Fold change vs veh, RFX7 / RFU, GTPBP10 / Fold change vs veh, GTPBP10 / RFU, CNEP1R1 / Fold change vs veh, CNEP1R1 / RFU, BIVM-ERCC5 /// ERCC5 / Fold change vs veh, BIVM-ERCC5 /// ERCC5 / RFU, ILF3 / Fold change vs veh, ILF3 / RFU 11762660_at / Fold change /veh 11762660_at / RFU VCAN (11757783_s_at) / Fold change /veh VCAN (11757783_s_at) / RFU DDX43 (11728927_at) / Fold change /veh DDX43 (11728927_at) / RFU KRT8 (11758188_x_at) / Fold change /veh KRT8 (11758188_x_at) / RFU NKD1 (11759106_at) / Fold change /veh NKD1 (11759106_at) / RFU SRD5A1 (11742802_a_at) / Fold change /veh SRD5A1 (11742802_a_at) / RFU TPSAB1 /// TPSB2 (11721975_s_at) / Fold change /veh TPSAB1 /// TPSB2 (11721975_s_at) / RFU GSTM3 (11746129_a_at) / Fold change /veh GSTM3 (11746129_a_at) / RFU IL23R (11737362_x_at) / Fold change /veh IL23R (11737362_x_at) / RFU TMEM51 (11727254_a_at) / Fold change /veh TMEM51 (11727254_a_at) / RFU PIWIL2 (11732686_x_at) / Fold change /veh PIWIL2 (11732686_x_at) / RFU ORM1 (11744905_x_at) / Fold change /veh ORM1 (11744905_x_at) / RFU CCDC152 (11743942_at) / Fold change /veh CCDC152 (11743942_at) / RFU ECM1 (11717891_a_at) / Fold change /veh ECM1 (11717891_a_at) / RFU IL23R (11748794_a_at) / Fold change /veh IL23R (11748794_a_at) / RFU TNFAIP8L3 (11732012_x_at) / Fold change /veh TNFAIP8L3 (11732012_x_at) / RFU MBOAT4 (11741988_at) / Fold change /veh MBOAT4 (11741988_at) / RFU 11764193_at / Fold change /veh 11764193_at / RFU TMEM53 (11763286_at) / Fold change /veh TMEM53 (11763286_at) / RFU MAGEB2 (11727129_at) / Fold change /veh MAGEB2 (11727129_at) / RFU TMEM200A (11744735_a_at) / Fold change /veh TMEM200A (11744735_a_at) / RFU CCDC152 (11751479_a_at) / Fold change /veh CCDC152 (11751479_a_at) / RFU FAM211A (11726209_a_at) / Fold change /veh FAM211A (11726209_a_at) / RFU RGS16 (11746705_a_at) / Fold change /veh RGS16 (11746705_a_at) / RFU VCAN (11755009_s_at) / Fold change /veh VCAN (11755009_s_at) / RFU RHOB (11743442_s_at) / Fold change /veh RHOB (11743442_s_at) / RFU RGS16 (11720943_a_at) / Fold change /veh RGS16 (11720943_a_at) / RFU RGS16 (11720944_at) / Fold change /veh RGS16 (11720944_at) / RFU, VPS4B / Fold change vs veh, VPS4B / RFU, CREB1 / Fold change vs veh, CREB1 / RFU, DNAJC13 / Fold change vs veh, DNAJC13 / RFU, GNAQ / Fold change vs veh, GNAQ / RFU, CDK5R1 / Fold change vs veh, CDK5R1 / RFU, ZRANB3 / Fold change vs veh, ZRANB3 / RFU, CUL4A / Fold change vs veh, CUL4A / RFU, CCNY / Fold change vs veh, CCNY / RFU, UFL1 / Fold change vs veh, UFL1 / RFU, COG3 / Fold change vs veh, COG3 / RFU, DIAPH2 / Fold change vs veh, DIAPH2 / RFU, SKA2 / Fold change vs veh, SKA2 / RFU, AFF3 / Fold change vs veh, AFF3 / RFU, LMF1 / Fold change vs veh, LMF1 / RFU, IPO11 / Fold change vs veh, IPO11 / RFU, DFFB / Fold change vs veh, DFFB / RFU, FOXP1 / Fold change vs veh, FOXP1 / RFU, CARD8 / Fold change vs veh, CARD8 / RFU, STRN3 / Fold change vs veh, STRN3 / RFU, ADK / Fold change vs veh, ADK / RFU, RASSF2 / Fold change vs veh, RASSF2 / RFU, WIPF1 / Fold change vs veh, WIPF1 / RFU, LARP1B / Fold change vs veh, LARP1B / RFU, RASA1 / Fold change vs veh, RASA1 / RFU, RB1 / Fold change vs veh, RB1 / RFU, PPFIA1 / Fold change vs veh, PPFIA1 / RFU, MAT2A / Fold change vs veh, MAT2A / RFU, CCT5 / Fold change vs veh, CCT5 / RFU, WDR92 / Fold change vs veh, WDR92 / RFU, CUX1 / Fold change vs veh, CUX1 / RFU, TTC7A / Fold change vs veh, TTC7A / RFU, TMEM135 / Fold change vs veh, TMEM135 / RFU, DEPTOR / Fold change vs veh, DEPTOR / RFU, CPM / Fold change vs veh, CPM / RFU, DNAJB6 / Fold change vs veh, DNAJB6 / RFU, CACNA2D3 / Fold change vs veh, CACNA2D3 / RFU, DTX4 / Fold change vs veh, DTX4 / RFU, TFCP2 / Fold change vs veh, TFCP2 / RFU, GMCL1 /// GMCL1P1 / Fold change vs veh, GMCL1 /// GMCL1P1 / RFU, AEBP2 / Fold change vs veh, AEBP2 / RFU, SNHG1 /// SNORD22 /// SNORD25 /// SNORD26 /// SNORD27 /// SNORD28 /// SNORD29 /// SNORD31 / Fold change vs veh, SNHG1 /// SNORD22 /// SNORD25 /// SNORD26 /// SNORD27 /// SNORD28 /// SNORD29 /// SNORD31 / Fold change (Aza/veh), C12orf56 (ProbeSet 11735607_a_at) / Fold change (ACY-1035/veh), C12orf56 (ProbeSet 11735607_a_at) / Fold change (Aza/veh), FGFR1OP (ProbeSet 11751329_s_at) / Fold change (ACY-1035/veh), FGFR1OP (ProbeSet 11751329_s_at) / Fold change (Aza/veh), VPS36 (ProbeSet 11739960_a_at) / Fold change (ACY-1035/veh), VPS36 (ProbeSet 11739960_a_at) / RFU SYPL1 (11715823_x_at) / Fold change /veh SYPL1 (11715823_x_at) / RFU IGFBP7 (11715501_s_at) / Fold change /veh IGFBP7 (11715501_s_at) / RFU REEP3 (11722064_at) / Fold change /veh REEP3 (11722064_at) / RFU IGLL1 (11728026_x_at) / Fold change /veh IGLL1 (11728026_x_at): dose or concentration left out as unconfirmed", "settings": "ProbeSet 11753055_s_at; LIST B"}
{"molecule": "Nc1ncn([C@@H]2O[C@H](CO)[C@@H](O)[C@H]2O)c(=O)n1", "note": "[azacitidine]", "values": [{"measurement": "RFU, LOC101060439 /// RAP1B", "result": 558.59, "unit": "RFU"}]}
